The values below come from patent US20250092064A1, “BENZOTRIAZOLE COMPOUND” (DAIICHI SANKYO COMPANY, LIMITED, priority 2022, published 2025).

Molecules are shown by their SMILES. Bounds are passed on as bounds.

The test system of assay [1] is NQO1 activity in Hepa1c1c7 cells. Description: NAD(P)H: quinone oxidoreductase-1 (NQO1) enzyme induction assay (in vitro). It is filed as cell-based, mouse. Particulars: about 48 hr; for fold induction at 0.4 µM: Mus musculus, Hepa-1c1c7, NQO1 activity with 400 nM test compound as a ratio from the base without compound. The procedure:
The NQO1 assay was performed based on a previous report (Methods in Enzymology 2004; 382: 243-258). Hepa1c1c7 cells (mouse hepatocyte cell line, ATCC, cat. no. CRL-2026) were cultured in D-MEM medium containing 10% FBS and 1% penicillin/streptomycin (5% CO2, 37° C.), and seeded into 96-well plates (Corning REF. 353072) at 1×10^4 cells/well. A portion of the wells were prepared with medium only for background measurement without seeding cells. The next day, 400 nM of the test compound (0.004% of the final concentration in DMSO) dissolved in DMSO was added thereto, and the wells were incubated for about 48 hr. A well without adding the test compound was prepared for base activity assay in part. […] After the medium was removed, 50 μL of the cell lysate was added and incubated at 37° C. for 10 minutes, followed by shaking at room temperature for 10 minutes. 200 μL of reaction solution was added thereto, and allowed to stand for 5 minutes at room temperature. 50 μL of the stop solution was added thereto, and absorbance was measured at 610 nm on a SpectraMax PLUS384 (Molecular devices) or […] Pharma Biomedical). The test results were analyzed in Excel, and the NQO1 activity upon addition of 400 nM of test compound was calculated as a ratio from the base without the compound. NQO1 activity ratio when test compound is added=(absorbance when test compound is added-absorbance of medium only)/(absorbance without addition of compound-absorbance of medium only) [numerical formula 2] The results of each test compound in this test are shown in the following Table 2 (A:5<NQO1 activity ratio, B:3<NQO1 activity ratio≤5).

Assay [2] deals with binding between Nrf2 and Keap1 (Homo sapiens (Human), UniProt Q14145). Description: FP assay (in vitro): inhibition of Nrf2-Keap1 binding by fluorescence polarization. Conditions: GST-fused human Keap1 (325-642) 20 nM, FITC-labeled Nrf2 peptide 10 nM, 2 hr at room temperature. (Polarisation of emitted light reports the rotation of a fluorescent probe.)
Sequence of binding between Nrf2 and Keap1 (Q14145 325-624 limits assumed): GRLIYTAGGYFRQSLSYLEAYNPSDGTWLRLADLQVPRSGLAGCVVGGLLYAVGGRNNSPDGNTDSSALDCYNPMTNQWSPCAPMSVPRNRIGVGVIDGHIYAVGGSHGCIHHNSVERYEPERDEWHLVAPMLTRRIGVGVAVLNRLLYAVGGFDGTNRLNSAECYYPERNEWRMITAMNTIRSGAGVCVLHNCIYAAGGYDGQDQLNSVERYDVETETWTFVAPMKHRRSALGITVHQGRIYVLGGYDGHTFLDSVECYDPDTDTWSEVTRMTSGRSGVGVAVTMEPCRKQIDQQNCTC

In general, IC50 refers to the concentration that gives 50% inhibition. Low readings indicate inhibition by little substance, high ones a need for much substance. In the case of `Cc1c([C@H](CC(=O)O)c2cc(CN3C[C@@H](C4CC4)Oc4ccc(O)nc4C3C)c3sccc3c2)cnc2c1nnn2C` (single isomer, unassigned) [Example 86, (3R)-3-(7-{[(2R,5S*)-2-Cyclopropyl-7-hydroxy-5-methyl-2,3-dihydropyrido[2,3-f][1,4]oxazepin-4(5H)-yl]methyl}-1-benzothiophen-5-yl)-3-(3,7-dimethyl-3H-[1,2,3]triazolo[4,5-b]pyridin-6-yl)propanoic acid], the activity ratio result in assay [1] (NQO1 activity with 400 nM test compound as a ratio from the base without compound) is reported as “A (5<NQO1 activity ratio)”. For the same molecule, the IC50 in assay [2] is 0.03 to 0.1 µM.

As a reminder, the fold induction is the ratio of treated to control signal. For `Cc1c([C@H](CC(=O)O)c2cc(CN3CC4(CC4)Oc4ccc(O)nc4[C@H]3C)c3sccc3c2)ccc2c1nnn2C` (single isomer, unassigned) [Example 88, (3R)-3-(1,4-Dimethyl-1H-benzotriazol-5-yl)-3-(7-{[(5′R*)-7′-hydroxy-5′-methyl-3′H-spiro[cyclopropane-1,2′-pyrido[2,3-f][1,4]oxazepin]-4′(5′H)-yl]methyl}-1-benzothiophen-5-yl)propanoic acid], in assay [1], the fold induction at 0.4 µM was > 5. The molecule further came in with an IC50 in assay [2] of 0.01 to 0.03 µM.

For `CC[C@@H]1CN(Cc2cc(C(CC(=O)O)c3cc(O)c4c(nnn4C)c3C)cc3ccsc23)[C@@H](C)c2ncccc2O1` (single isomer, unassigned) [Example 93, (3S*)-3-(7-{[(2R,5S)-2-Ethyl-5-methyl-2,3-dihydropyrido[2,3-f][1,4]oxazepin-4(5H)-yl]methyl}-1-benzothiophen-5-yl)-3-(7-hydroxy-1,4-dimethyl-1H-benzotriazol-5-yl)propanoic acid], the fold induction at 0.4 µM in assay [1] is > 5. Moreover, in assay [2], the IC50 was ≤ 0.01 µM.

Turning to `CC[C@@H]1CN(Cc2cc([C@@H](CC(=O)O)c3cc(O)c4c(nnn4C)c3C)cc3ccsc23)[C@@H](C)c2ncccc2O1` (single isomer, unassigned) [Example 94, (3R*)-3-(7-{[(2R,5S)-2-Ethyl-5-methyl-2,3-dihydropyrido[2,3-f][1,4]oxazepin-4(5H)-yl]methyl}-1-benzothiophen-5-yl)-3-(7-hydroxy-1,4-dimethyl-1H-benzotriazol-5-yl)propanoic acid], the fold induction at 0.4 µM in assay [1] is > 5. Moreover, the IC50 in assay [2] was ≤ 0.01 µM.

Take `CC[C@@H]1CN(Cc2cc(C(CC(=O)O)c3ccc4c(nnn4C)c3C)cc3ccsc23)S(=O)(=O)c2cc(Cl)cnc2O1` (stereo partly drawn) [Example 1, 3-(7-{[(4R)-8-Chloro-4-ethyl-1,1-dioxido-3,4-dihydro-2H-pyrido[2,3-b][1,4,5]oxathiazepin-2-yl]methyl}-1-benzothiophen-5-yl)-3-(1,4-dimethyl-1H-benzotriazol-5-yl)propanoic acid]: the fold induction at 0.4 µM in assay [1] is > 5. This molecule gave an IC50 in assay [2] of 0.03 to 0.1 µM.

`CC[C@@H]1CN(Cc2cc(C(CC(=O)O)c3ccc4c(nnn4C)c3Cl)cc3ccsc23)S(=O)(=O)c2cc(Cl)cnc2O1` (stereo partly drawn) [Example 2, 3-(7-{[(4R)-8-Chloro-4-ethyl-1,1-dioxido-3,4-dihydro-2H-pyrido[2,3-b][1,4,5]oxathiazepin-2-yl]methyl}-1-benzothiophen-5-yl)-3-(4-chloro-1-methyl-1H-benzotriazol-5-yl)propanoic acid]: the fold induction at 0.4 µM in assay [1] was > 5. The IC50 in assay [2] lay in the range of 0.01 to 0.03 µM.

With `CC[C@@H]1CN(Cc2cc(C(CC(=O)O)c3ccc4c(nnn4C)c3C)cc3c2CCC3)S(=O)(=O)c2cc(Cl)cnc2O1` (stereo partly drawn) [Example 3, 3-(7-{[(4R)-8-Chloro-4-ethyl-1,1-dioxido-3,4-dihydro-2H-pyrido[2,3-b][1,4,5]oxathiazepin-2-yl]methyl}-2,3-dihydro-1H-inden-5-yl)-3-(1,4-dimethyl-1H-benzotriazol-5-yl)propanoic acid], the fold induction at 0.4 µM in assay [1] was > 5. Besides, the IC50 in assay [2] is ≤ 0.01 µM.

On to `C[C@@H]1CN(Cc2cc(C(CC(=O)O)c3ccc4c(nnn4C)c3F)cc3c2CCC3)S(=O)(=O)c2ccccc2O1` (stereo partly drawn) [Example 6, 3-(4-Fluoro-1-methyl-1H-benzotriazol-5-yl)-3-(7-{[(4R)-4-methyl-1,1-dioxido-3,4-dihydro-2H-5,1,2-benzoxathiazepin-2-yl]methyl}-2,3-dihydro-1H-inden-5-yl)propanoic acid], for which, in assay [1], the fold induction at 0.4 µM was > 5. Also, the IC50 in assay [2] is ≤ 0.01 µM.

On to `CCOc1ccc2c(n1)O[C@H](CC)CN(Cc1cc(C(CC(=O)O)c3ccc4c(nnn4C)c3C)cc3c1CCC3)S2(=O)=O` (stereo partly drawn) [Example 9, 3-(1,4-Dimethyl-1H-benzotriazol-5-yl)-3-(7-{[(4R)-7-ethoxy-4-ethyl-1,1-dioxido-3,4-dihydro-2H-pyrido[2,3-b][1,4,5]oxathiazepin-2-yl]methyl}-2,3-dihydro-1H-inden-5-yl)propanoic acid], for which the fold induction at 0.4 µM in assay [1] is > 5. This molecule gave an IC50 in assay [2] of 0.01 to 0.03 µM.

As to `CC[C@@H]1CN(Cc2cc(C(CC(=O)O)c3ccc4c(nnn4C)c3C)cc3c2CCC3)S(=O)(=O)c2cc(C)cnc2O1` (stereo partly drawn) [Example 10, 3-(1,4-Dimethyl-1H-benzotriazol-5-yl)-3-(7-{[(4R)-4-ethyl-8-methyl-1,1-dioxido-3,4-dihydro-2H-pyrido[2,3-b][1,4,5]oxathiazepin-2-yl]methyl}-2,3-dihydro-1H-inden-5-yl)propanoic acid], the fold induction at 0.4 µM in assay [1] was > 5. Moreover, in assay [2], the IC50 fell in the range of 0.01 to 0.03 µM.

As for `CC[C@@H]1CN(Cc2cc(C(CC(=O)O)c3ccc4c(nnn4C)c3C)cc3c2CCC3)S(=O)(=O)c2ccc(C)nc2O1` (stereo partly drawn) [Example 11, 3-(1,4-Dimethyl-1H-benzotriazol-5-yl)-3-(7-{[(4R)-4-ethyl-7-methyl-1,1-dioxido-3,4-dihydro-2H-pyrido[2,3-b][1,4,5]oxathiazepin-2-yl]methyl}-2,3-dihydro-1H-inden-5-yl)propanoic acid], the fold induction at 0.4 µM in assay [1] was > 5. Besides, the IC50 in assay [2] was 0.01 to 0.03 µM.

Turning to `CC[C@@H]1CN(Cc2cc(C(CC(=O)O)c3ccc4c(nnn4C)c3C)cc3c2CCC3)S(=O)(=O)c2ccccc2O1` (stereo partly drawn) [Example 12, 3-(1,4-Dimethyl-1H-benzotriazol-5-yl)-3-(7-{[(4R)-4-ethyl-1,1-dioxido-3,4-dihydro-2H-5,1,2-benzoxathiazepin-2-yl]methyl}-2,3-dihydro-1H-inden-5-yl)propanoic acid], in assay [1], the fold induction at 0.4 µM was > 5. For the same molecule, in assay [2], the IC50 is ≤ 0.01 µM.

Regarding `CC[C@@H]1CN(Cc2cc(C(CC(=O)O)c3ccc4c(nnn4C)c3C)cc3c2CCC3)S(=O)(=O)c2cc(Cl)c(F)cc2O1` (stereo partly drawn) [Example 13, 3-(7-{[(4R)-8-Chloro-4-ethyl-7-fluoro-1,1-dioxido-3,4-dihydro-2H-5,1,2-benzoxathiazepin-2-yl]methyl}-2,3-dihydro-1H-inden-5-yl)-3-(1,4-dimethyl-1H-benzotriazol-5-yl)propanoic acid], the fold induction at 0.4 µM in assay [1] was > 5. Further, the IC50 in assay [2] is ≤ 0.01 µM.

Turning to `CC[C@@H]1CN(Cc2cc(C(CC(=O)O)c3ccc4c(nnn4C)c3C)cc3c2CCC3)S(=O)(=O)c2cc(Cl)ccc2O1` (stereo partly drawn) [Example 14, 3-(7-{[(4R)-8-Chloro-4-ethyl-1,1-dioxido-3,4-dihydro-2H-5,1,2-benzoxathiazepin-2-yl]methyl}-2,3-dihydro-1H-inden-5-yl)-3-(1,4-dimethyl-1H-benzotriazol-5-yl)propanoic acid], in assay [1], the fold induction at 0.4 µM is > 5. The half-inhibitory concentration (IC50) in assay [2] lay in the range of 0.01 to 0.03 µM.

Regarding `CC[C@@H]1CN(Cc2cc(C(CC(=O)O)c3ccc4c(nnn4C)c3C)cc3c2CCC3)S(=O)(=O)c2cccc(Cl)c2O1` (stereo partly drawn) [Example 16, 3-(7-{[(4R)-6-Chloro-4-ethyl-1,1-dioxido-3,4-dihydro-2H-5,1,2-benzoxathiazepin-2-yl]methyl}-2,3-dihydro-1H-inden-5-yl)-3-(1,4-dimethyl-1H-benzotriazol-5-yl)propanoic acid], the fold induction at 0.4 µM in assay [1] was > 5. Besides, the IC50 in assay [2] is ≤ 0.01 µM.

As to `CC[C@@H]1CN(Cc2cc(C(CC(=O)O)c3ccc4c(nnn4C)c3C)cc3c2CCC3)S(=O)(=O)c2c(Cl)cccc2O1` (stereo partly drawn) [Example 17, 3-(7-{[(4R)-9-Chloro-4-ethyl-1,1-dioxido-3,4-dihydro-2H-5,1,2-benzoxathiazepin-2-yl]methyl}-2,3-dihydro-1H-inden-5-yl)-3-(1,4-dimethyl-1H-benzotriazol-5-yl)propanoic acid], the fold induction at 0.4 µM in assay [1] lay within 3 to 5. The IC50 in assay [2] was ≤ 0.01 µM.

Regarding `CCOc1cc2c(cc1Cl)S(=O)(=O)N(Cc1cc(C(CC(=O)O)c3ccc4c(nnn4C)c3C)cc3c1CCC3)C[C@@H](CC)O2` (stereo partly drawn) [Example 18, 3-(7-{[(4R)-8-Chloro-7-ethoxy-4-ethyl-1,1-dioxido-3,4-dihydro-2H-5,1,2-benzoxathiazepin-2-yl]methyl}-2,3-dihydro-1H-inden-5-yl)-3-(1,4-dimethyl-1H-benzotriazol-5-yl)propanoic acid], the fold induction at 0.4 µM in assay [1] fell in the range of 3 to 5. Further, the IC50 in assay [2] lay in the range of 0.03 to 0.1 µM.
